Experimental data reported in PubChem BioAssay AID330 (DTP/NCI, 2004).
“And” between values parts separate entries of the source, which are not always exact repeats. Equal values may be shown once. Toxic doses and inconclusive results are not listed. Rule for the calls: active = survival T/C of 150% or more; inactive = T/C below 125% in these data.

Test system: P388 leukemia ip, CD2F1 mice, survival T/C
Experiment: NCI In Vivo Anticancer Drug Screen. Data for tumor model P388 Leukemia (intraperitoneal) in CD2F1 (CDF1) mice
Details: endpoint: median survival time, higher = longer survival
How it was run: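 Mice carrying the transplanted tumor received test compound or vehicle. Survival was recorded in each group, and the value is the treated-group measurement divided by that of the vehicle-treated control group.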

[1] = dose: 100.0 mg/kg/injection, schedule: Q04DX002 (ip), vehicle: saline with Tween-80
[2] = dose: 200.0 mg/kg/injection, schedule: Q04DX002 (ip), vehicle: saline with Tween-80
[3] = dose: 400.0 mg/kg/injection, schedule: Q04DX002 (ip), vehicle: saline with Tween-80
[4] = dose: 50.0 mg/kg/injection, schedule: Q01DX009 (ip), vehicle: saline with Tween-80
[5] = dose: 100.0 mg/kg/injection, schedule: Q01DX009 (ip), vehicle: saline with Tween-80
[6] = dose: 200.0 mg/kg/injection, schedule: Q01DX009 (ip), vehicle: saline with Tween-80
[7] = dose: 50.0 mg/kg/injection, schedule: Q01DX005 (ip), vehicle: Klucel (hydroxypropylcellulose) (HPC)
[8] = dose: 100.0 mg/kg/injection, schedule: Q01DX005 (ip), vehicle: Klucel (hydroxypropylcellulose) (HPC)
[9] = dose: 25.0 mg/kg/injection, schedule: Q01DX009 (ip), vehicle: saline with Tween-80
[10] = dose: 50.0 mg/kg/injection, schedule: Q01DX005 (ip), vehicle: saline with Tween-80
[11] = dose: 100.0 mg/kg/injection, schedule: Q01DX005 (ip), vehicle: saline with Tween-80
[12] = dose: 200.0 mg/kg/injection, schedule: Q01DX005 (ip), vehicle: saline with Tween-80
[13] = dose: 60.0 mg/kg/injection, schedule: Q01DX005 (ip), vehicle: Klucel (hydroxypropylcellulose) (HPC)
[14] = dose: 120.0 mg/kg/injection, schedule: Q01DX005 (ip), vehicle: Klucel (hydroxypropylcellulose) (HPC)

Measured: T/C

O=C(O)CC(=O)C(=O)O
inactive: [1] 98 % of control | dose: 100.0 mg/kg/injection, schedule: Q04DX002 (ip), vehicle: saline 101 % of control | [2] 112 % of control | dose: 200.0 mg/kg/injection, schedule: Q04DX002 (ip), vehicle: saline 97 % of control | [3] 112 % of control

CCOC(=O)c1ccc(NC(=NC(C)(C)C)C(C)C)cc1
inactive: [4] 96 % of control | [5] 101 % of control | [6] 91 % of control

O=C1NC(=O)C2=C1CCC2Br (configuration not stated)
inactive: dose: 3.13 mg/kg/injection, schedule: Q01DX009 (ip), vehicle: distilled water + Tween-80 101 % of control | dose: 6.25 mg/kg/injection, schedule: Q01DX009 (ip), vehicle: distilled water + Tween-80 102 % of control

c1ccc2c(NCCCCCCCCCCNc3c4ccccc4nc4ccccc34)c3ccccc3nc2c1
inactive: dose: 0.62 mg/kg/injection, schedule: Q## X009 (ip), vehicle: lactic acid 104 % of control | dose: 1.25 mg/kg/injection, schedule: Q## X009 (ip), vehicle: lactic acid 118 % of control | dose: 5.0 mg/kg/injection, schedule: Q## X009 (ip), vehicle: lactic acid 120 % of control | dose: 10.0 mg/kg/injection, schedule: Q## X009 (ip), vehicle: lactic acid 90 % of control

O=Nc1sc(=S)n(N2CCCCC2)c1O
inactive: [7] 99 % of control | [8] 96 % of control

CCOC(=O)CC(=O)OC(C)(C)C
inactive: [9] 97 % of control | [4] 106 % of control | [5] 104 % of control | [6] 100 % of control

Cc1c2oc3c(C)ccc(C(=O)OCCN4CCCCC4)c3nc-2c(C(=O)OCCN2CCCCC2)c(N)c1=O
inactive: dose: 6.25 mg/kg/injection, schedule: Q01DX009 (ip), vehicle: saline with Tween-80 100 % of control | dose: 12.5 mg/kg/injection, schedule: Q01DX009 (ip), vehicle: saline with Tween-80 99 % of control | [9] 107 % of control | [4] 113 % of control

O=C(C(O)C(O)C(O)CO)n1cnc2c1ncn1c(=O)cc(CI)nc21 (configuration not stated)
inactive: dose: 100.0 mg/kg/injection, schedule: Q01DX001 (ip), vehicle: saline with Tween-80 105 % of control | dose: 200.0 mg/kg/injection, schedule: Q01DX001 (ip), vehicle: saline with Tween-80 97 % of control | dose: 400.0 mg/kg/injection, schedule: Q01DX001 (ip), vehicle: saline with Tween-80 111 % of control

Cc1ccc(OP(=O)(Oc2ccc(C)cc2)Oc2ccc(C)cc2)cc1.Cc1ccc(OP(=O)(Oc2ccc(C)cc2)Oc2ccc(C)cc2)cc1.[Cl][Mn][Cl]
inactive: dose: 100.0 mg/kg/injection, schedule: Q04DX003 (ip), vehicle: Klucel (hydroxypropylcellulose) (HPC) 110 % of control | dose: 200.0 mg/kg/injection, schedule: Q04DX003 (ip), vehicle: Klucel (hydroxypropylcellulose) (HPC) 115 % of control | dose: 400.0 mg/kg/injection, schedule: Q04DX003 (ip), vehicle: Klucel (hydroxypropylcellulose) (HPC) 114 % of control

CN(C)c1ccc(P(=O)(O)O)cc1
inactive: [10] 96 % of control | [11] 99 % of control | [12] 91 % of control

CC(=O)Nc1ccc(C(=O)O)c(O)c1.CC(=O)Nc1ccc(C(=O)O)c(O)c1.[Cu]
inactive: dose: 6.25 mg/kg/injection, schedule: Q01DX001 (ip), vehicle: saline 98 % of control | dose: 12.5 mg/kg/injection, schedule: Q01DX001 (ip), vehicle: saline 97 % of control | dose: 25.0 mg/kg/injection, schedule: Q01DX001 (ip), vehicle: saline 94 % of control

CN1C(=O)C(N=O)C(=O)N(C)C1=S
inactive: dose: 6.25 mg/kg/injection, schedule: Q04DX002 (ip), vehicle: saline with Tween-80 99 % of control | dose: 12.5 mg/kg/injection, schedule: Q04DX002 (ip), vehicle: saline with Tween-80 100 % of control | dose: 25.0 mg/kg/injection, schedule: Q04DX002 (ip), vehicle: saline with Tween-80 101 % of control

O=C(O)/C(Cl)=C(\Cl)C(=O)Nc1ccccc1C(F)(F)F
inactive: [10] 97 % of control | [11] 103 % of control

COc1ccc2ncc(COC(C)=O)c(C)c2c1
inactive: [10] 99 % of control | [11] 99 % of control | [12] 93 % of control

NC(=O)N/N=C1\CCCCC12CCCC2
inactive: [1] 102 % of control | [2] 102 % of control | [3] 100 % of control

Nc1ccc(-c2nc3ccccc3[nH]2)cc1
inactive: dose: 50.0 mg/kg/injection, schedule: Q04DX003 (ip), vehicle: saline 100 % of control | dose: 100.0 mg/kg/injection, schedule: Q04DX003 (ip), vehicle: saline 100 % of control | dose: 200.0 mg/kg/injection, schedule: Q04DX003 (ip), vehicle: saline 96 % of control

COC1=C(C)[C@@H]2CC(=O)O[C@@H]3C[C@H]4CCCC[C@]4(C)[C@@H](C1=O)[C@@]32C
inactive: [7] 95 % of control | [8] 92 % of control | dose: 200.0 mg/kg/injection, schedule: Q01DX005 (ip), vehicle: Klucel (hydroxypropylcellulose) (HPC) 93 % of control

CN1CC[N+](C)=C1c1nc2ccccc2n1C
inactive: dose: 12.5 mg/kg/injection, schedule: Q01DX009 (ip), vehicle: suspension in saline 105 % of control | dose: 25.0 mg/kg/injection, schedule: Q01DX009 (ip), vehicle: suspension in saline 117 % of control | dose: 50.0 mg/kg/injection, schedule: Q01DX009 (ip), vehicle: suspension in saline 118 % of control

COc1cc(C(=O)OC2c3ccccc3CCC2N(C)C)cc(OC)c1OC (configuration not stated)
inactive: [9] 98 % of control | [4] 91 % of control

COc1cc(Cl)ccc1NC(=O)Oc1cc(C)c(I)cc1C
inactive: [4] 104 % of control | [5] 100 % of control | [6] 88 % of control

CC1=CC[N+](C)(C)C(C(N)=O)C1 (configuration not stated)
inactive: dose: 50.0 mg/kg/injection, schedule: Q01DX005 (ip), vehicle: saline 108 % of control | dose: 100.0 mg/kg/injection, schedule: Q01DX005 (ip), vehicle: saline 105 % of control

CNc1c([N+](=O)[O-])cc2[nH]cnc2c1[N+](=O)[O-]
inactive: dose: 25.0 mg/kg/injection, schedule: Q04DX003 (ip), vehicle: saline with Tween-80 97 % of control | dose: 50.0 mg/kg/injection, schedule: Q04DX003 (ip), vehicle: saline with Tween-80 95 % of control

S=c1[nH]c(Cl)c(Cl)cc1Cl
inactive: [4] 98 % of control | [5] 105 % of control | [6] 99 % of control

O=c1c2ccccc2oc2nc3ccccc3nc12
inactive: [13] 101 % of control | [14] 103 % of control

Oc1ccc(O)c2c1C1(Cl)C(Cl)=C(Cl)C2(Cl)C1(Cl)Cl
inactive: dose: 100.0 mg/kg/injection, schedule: Q04DX003 (ip), vehicle: other 100 % of control | dose: 200.0 mg/kg/injection, schedule: Q04DX003 (ip), vehicle: other 104 % of control | dose: 400.0 mg/kg/injection, schedule: Q04DX003 (ip), vehicle: other 113 % of control

CC(=O)NC1CC(C)(C)NC(C)(C)C1
inactive: dose: 12.5 mg/kg/injection, schedule: Q01DX009 (ip), vehicle: saline 100 % of control | dose: 25.0 mg/kg/injection, schedule: Q01DX009 (ip), vehicle: saline 96 % of control | dose: 50.0 mg/kg/injection, schedule: Q01DX009 (ip), vehicle: saline 114 % of control and 88 % of control | dose: 200.0 mg/kg/injection, schedule: Q01DX009 (ip), vehicle: saline 95 % of control

CC[PH+](CC)CC.CC[PH+](CC)CC.[Au]
inactive: dose: 0.15 mg/kg/injection, schedule: Q01DX009 (ip), vehicle: water 104 % of control and 91 % of control | dose: 0.31 mg/kg/injection, schedule: Q01DX009 (ip), vehicle: water 100 % of control and 107 % of control | dose: 0.62 mg/kg/injection, schedule: Q01DX009 (ip), vehicle: water 118 % of control and 122 % of control | dose: 1.25 mg/kg/injection, schedule: Q01DX009 (ip), vehicle: water 118 % of control

COc1ccc(/C(=N\O)c2nccc3cc(OC)c(OC)cc23)cc1OC
inactive: dose: 15.0 mg/kg/injection, schedule: Q01DX005 (ip), vehicle: saline with Tween-80 116 % of control | dose: 30.0 mg/kg/injection, schedule: Q01DX005 (ip), vehicle: saline with Tween-80 105 % of control | dose: 60.0 mg/kg/injection, schedule: Q01DX005 (ip), vehicle: saline with Tween-80 99 % of control and 92 % of control

Cc1nn(C)c2ccc3ccccc3c(=O)c12
inactive: [13] 101 % of control | [14] 102 % of control | dose: 240.0 mg/kg/injection, schedule: Q01DX005 (ip), vehicle: Klucel (hydroxypropylcellulose) (HPC) 105 % of control
